Source: patent publication US12599640B2, “Lactobacillus plantarum ZUST49 and bacterial agent, and use thereof” (ZHEJIANG UNIVERSITY OF SCIENCE AND TECHNOLOGY, priority 2023, dated 2026)

Assay: Production of sulforaphane by feeding mice with enteric capsule (plasma sulforaphane, cyclocondensation method)
Format: in vivo
Conditions: mouse plasma; intragastric glucoraphanin aqueous solution, 150 μmol of glucoraphanin/kg; blood taken at 0 h and 12 h
From the text: C57BL/6 male mice of 6 to 8 weeks were pre-reared for 1 week and randomly divided into an enteric capsule group, a glucoraphanin group, and a blank group. Mice in the enteric capsule group were intragastrically administered daily with an enteric capsule aqueous solution containing Lactobacillus plantarum ZUST49 and glucoraphanin (150 μmol of glucoraphanin/kg and ZUST49 content of 8.7×10^5 CFU/g, and prepared according to the method of example 3). The mice in the glucoraphanin group were intragastrically administrated with a glucoraphanin aqueous solution (150 μmol of glucoraphanin/kg). The mice were fed with food and water ad libitum. Food intake and weight were recorded daily. The mice were deeply anesthetized with an intraperitoneal injection of ketamine/xylazine (87 mg/mL and 13 mg/mL respectively, and 0.1 mL/100 g mice) at 0 h and 12 h (6 mice/group each time period), and put to death by cervical dislocation after blood collection by cardiac puncture. The sulforaphane content in plasma of the mice was determined by a cyclocondensation method.

SMILES: C[S+]([O-])CCCC/C(=N\OS(=O)(=O)O)S[C@@H]1O[C@H](CO)[C@@H](O)[C@H](O)[C@H]1O (stereo partly shown) [glucoraphanin]
- sulforaphane content in the plasma of the mice: 0.017 ± 0.030 µM
